{"source": "patent US8217069B2", "about": "“Nitrogenated fused ring derivative, pharmaceutical composition comprising the same, and use of the same for medical purposes” (Kissei Pharmaceutical Co., Ltd., priority 2007, dated 2012)", "data": [{"target": "T1, human GnRH receptor1 (GnRHR1) (Homo sapiens, UniProt P30968)", "T1 construct": "expressed in transfected cells", "T1 sequence (P30968 1-328)": "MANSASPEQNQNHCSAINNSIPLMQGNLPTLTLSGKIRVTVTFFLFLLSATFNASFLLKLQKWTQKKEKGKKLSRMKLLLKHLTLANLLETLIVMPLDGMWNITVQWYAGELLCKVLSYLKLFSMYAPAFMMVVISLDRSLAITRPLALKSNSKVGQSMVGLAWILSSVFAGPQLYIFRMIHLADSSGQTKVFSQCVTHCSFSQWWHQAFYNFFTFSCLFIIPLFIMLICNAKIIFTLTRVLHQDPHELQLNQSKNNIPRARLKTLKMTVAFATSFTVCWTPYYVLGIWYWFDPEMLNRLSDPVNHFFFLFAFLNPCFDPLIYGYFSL", "test": "Assay of inhibitory effect for the change of calcium levels in GnRH-stimulated cells (hGnRHR1#1 HEK293 cells, FLIPR Calcium Assay Kit)", "format": "cell-based", "details": "drug concentration at which 50% GnRH-stimulated intracellular calcium flux was inhibited, 10 nM GnRH", "text": "1) Cloning and Construction of the Vector Expressing Human GnRH Receptor1 (GnRHR1)\nUsing cDNA derived from human pituitary (BECTON DICKINSON) as a template, the DNA fragment coding 45 to 1115 bp of human GnRHR1 (Accession No. L03380), which was reported by Kakar et al., was amplified by PCR method and inserted into the multi-cloning site of pcDNA3.1(+) (Invitrogen). The DNA sequence inserted was perfectly matched to the previously reported sequence.\n2) Establishment of Cell Line Stably Expressing Human GnRH Receptor1 HEK293 Cells\nThe expression vector of human GnRHR1 gene, was digested by XhoI into a linear DNA. The linear DNA was transfected into HEK293 cells by means of lipofection (Lipofectamine-2000: Invitrogen). Neomycin resistant cell lines were selected by culture in the medium containing G418 (Invitrogen) at 1 mg/mL, and then the change of calcium levels in GnRH-stimulated cells was measured by the method described below.\n3) Assay of Inhibitory Effect for the Change of Calcium Levels in GnRH-Stimulated Cells\nAntagonizing effect of compounds for human GnRHR1 was evaluated by depression of calcium levels in GnRH-stimulated cells. hGnRHR1#1 cells were seeded into a 96-well culture plate at a density of 1.5×10^5 cells/well and cultured for a day. After removing the culture medium, cells were washed with 200 μL per well of the washing buffer (Hanks' Balanced Salt Solutions, 20 mM N-2-hydroxyethylpiperazine-N′-2-ethanesulfonic acid, 1.3 mM calcium chloride, 0.5 mM magnesium chloride, 0.4 mM magnesium sulfate). One hundred μL of the Ca^2+ sensitive dye solution (FLIPR Calcium Assay Kit, Molecular Devices) was added to the well, and the cells were incubated for 1 hour at 37° C. in 5% CO2 incubator. Then, intracellular calcium levels were determined under the following condition by using FLEX STATION (Molecular Devices). In the equipment, which was warmed to 37° C., 50 μL of test compound diluted with the measurement buffer (the washing buffer with 0.1% Albumin bovine serum) was added to the well. After 1 minute, 50 μL of 10 nM GnRH was added to the well. The drug concentration, at which 50% GnRH-stimulated intracellular calcium flux was inhibited (IC50 value), was calculated using logit plot (Table 106).", "units": {"IC50": "nM"}, "values": [{"smiles": "CC(C)(c1ccccc1)S(=O)(=O)c1ccc(Cl)c(-n2c(=O)[nH]c3ccc(C(=O)O)nc32)c1", "note": "[Example 35]", "IC50": 193}, {"smiles": "COc1cc(Cl)c(-n2c(=O)[nH]c3c(OC)ncnc32)cc1OCc1c(OC)ccc(F)c1F", "note": "[Example 39]", "IC50": 27}, {"smiles": "COc1ccc(F)c(F)c1CN(C(C)=O)c1ccc(Cl)c(-n2c(=O)[nH]c3c(C)cc(C(=O)O)nc32)c1", "note": "[Example 81]", "IC50": 32}, {"smiles": "Cc1cc(C(=O)O)nc2c1[nH]c(=O)n2-c1cc(S(=O)(=O)N2CCCCc3ccccc32)ccc1F", "note": "[Example 93]", "IC50": 20}, {"smiles": "COc1cc(F)c(-n2c(=O)[nH]c3c(C)cc(C(=O)O)nc32)cc1SC(C)(C)c1ccccc1Cl", "note": "[Example 109]", "IC50": 36}, {"smiles": "COc1cccc(F)c1C(C)(C)S(=O)(=O)c1ccc(Cl)c(-n2c(=O)[nH]c3c(C)cc(C(=O)O)nc32)c1", "note": "[Example 128]", "IC50": 24}, {"smiles": "Cc1cc(CO)nc2c1[nH]c(=O)n2-c1cc(S(=O)(=O)N2CCCCc3ccccc32)ccc1Cl", "note": "[Example 152, 3-[2-Chloro-5-(2,3,4,5-tetrahydro-1H-1-benzoazepin-1-ylsulfonyl)phenyl]-5-hydroxymethyl-7-methyl-1,3-dihydro-2H-imidazo[4,5-b]pyridin-2-one]", "IC50": 32}, {"smiles": "Cc1cc(/C(N)=N/O)nc2c1[nH]c(=O)n2-c1cc(S(=O)(=O)N2CCCCc3ccccc32)ccc1Cl", "note": "[Example 160, 3-[2-Chloro-5-(2,3,4,5-tetrahydro-1H-1-benzoazepin-1-ylsulfonyl)phenyl]-5-hydroxycarbamimidoyl-7-methyl-1,3-dihydro-2H-imidazo[4,5-b]pyridin-2-one]", "IC50": 99}, {"smiles": "COc1ccccc1N(C)S(=O)(=O)c1ccc(Cl)c(-n2c(=O)[nH]c3c(OC)ncnc32)c1", "note": "[Example 199]", "IC50": 46}, {"smiles": "COc1cccc(F)c1COc1cc(-n2c(=O)[nH]c3c(OC)nc(CF)nc32)c(Cl)cc1OCCO", "note": "[Example 251]", "IC50": 54}, {"smiles": "COc1ncnc2c1[nH]c(=O)n2-c1cc(OCc2c(OCCNC(C)=O)ccc(F)c2F)ccc1Cl", "note": "[Example 262]", "IC50": 62}, {"smiles": "COc1cccc(F)c1COc1cc(-n2c(=O)[nH]c3c(OC)nc(CO)nc32)c(Cl)cc1OCC(=O)O", "note": "[Example 274]", "IC50": 15}, {"smiles": "COc1cc(Cl)c(-n2c(=O)[nH]c3c(OC)nc(CCO)nc32)cc1OCc1c(F)cccc1OC", "note": "[Example 314, 9-[2-Chloro-5-(2-fluoro-6-methoxybenzyloxy)-4-methoxyphenyl]-2-(2-hydroxyethyl)-6-methoxy-7,9-dihydro-8H-purin-8-one]", "IC50": 23}, {"smiles": "COc1ccc(F)c(F)c1COc1cc(-n2c(=O)[nH]c3c(OC)nc(CF)nc32)c(Cl)cc1OCC(=O)NCCO", "note": "[Example 341]", "IC50": 32}, {"smiles": "COc1ccc(F)c(F)c1COc1cc(-n2c(=O)[nH]c3c(OC)nc(C(F)F)nc32)c(Cl)cc1OCC(=O)N(C)C", "note": "[Example 345]", "IC50": 17}, {"smiles": "CNC(=O)COc1cc(Cl)c(-n2c(=O)[nH]c3c(OC)nc(C(C)=O)nc32)cc1OCc1c(OC)ccc(F)c1F", "note": "[Example 346]", "IC50": 38}, {"smiles": "COc1cc(Cl)c(-n2c(=O)[nH]c3c(C)nc(N)nc32)cc1OCc1c(OC)ccc(F)c1F", "note": "[Example 381, 2-Amino-9-[2-chloro-5-(2,3-difluoro-6-methoxybenzyloxy)-4-methoxyphenyl]-6-methyl-7,9-dihydro-8H-purin-8-one]", "IC50": 36}, {"smiles": "CCNC(=O)COc1cc(Cl)c(-n2c(=O)[nH]c3c(C(C)=O)nc(C)nc32)cc1OCc1c(F)cccc1OC", "note": "[Example 452]", "IC50": 19}]}]}
